Reference: publication PMC5650530 (ACS chemical biology, 2017)

Legend:
rat OPC = test: Monoculture rat OPC differentiation assay; details: alone or in combination with miconazole
mSGPL1 [1] = molecular target: T1, mSGPL1 (Mus musculus, UniProt Q8R0X7); test: AEA-DA probe interactions with mSGPL1 in vitro; format: binding; details: Fig. S3c
T1 sequence (Q8R0X7 1-568): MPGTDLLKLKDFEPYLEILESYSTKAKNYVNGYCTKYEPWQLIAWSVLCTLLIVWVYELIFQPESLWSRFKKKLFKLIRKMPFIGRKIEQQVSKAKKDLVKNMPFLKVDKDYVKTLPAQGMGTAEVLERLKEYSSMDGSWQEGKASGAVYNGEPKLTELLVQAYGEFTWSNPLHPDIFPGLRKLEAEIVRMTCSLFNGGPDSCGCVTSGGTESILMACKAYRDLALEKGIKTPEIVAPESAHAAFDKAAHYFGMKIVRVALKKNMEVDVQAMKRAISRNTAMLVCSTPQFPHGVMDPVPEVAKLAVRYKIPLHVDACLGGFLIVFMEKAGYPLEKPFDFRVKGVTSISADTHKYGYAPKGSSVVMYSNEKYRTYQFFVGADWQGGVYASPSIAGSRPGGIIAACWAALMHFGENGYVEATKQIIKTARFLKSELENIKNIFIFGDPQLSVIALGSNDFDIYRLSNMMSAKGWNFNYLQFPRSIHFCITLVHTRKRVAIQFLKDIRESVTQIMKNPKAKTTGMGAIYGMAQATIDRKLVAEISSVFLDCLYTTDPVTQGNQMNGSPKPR

ABHD5 = molecular target: T2, ABHD5 (Homo sapiens, UniProt Q8WTS1); test: LiPIP; format: binding; details: ligand at both 5 and 25 μM; probe 10 μM; HEK293T cells
T2 sequence (Q8WTS1 1-349): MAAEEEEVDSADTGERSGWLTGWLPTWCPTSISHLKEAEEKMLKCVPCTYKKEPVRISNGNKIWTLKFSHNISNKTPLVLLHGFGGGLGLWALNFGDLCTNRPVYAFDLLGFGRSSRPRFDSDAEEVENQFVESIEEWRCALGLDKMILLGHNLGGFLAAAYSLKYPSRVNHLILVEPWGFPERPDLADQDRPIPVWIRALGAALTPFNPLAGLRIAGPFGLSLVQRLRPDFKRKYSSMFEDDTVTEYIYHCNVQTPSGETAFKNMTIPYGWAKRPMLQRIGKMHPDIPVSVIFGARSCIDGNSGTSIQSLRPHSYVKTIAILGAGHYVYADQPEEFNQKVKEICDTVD

PNPLA2 = molecular target: T3, PNPLA2 (Homo sapiens, UniProt Q96AD5); test: LiPIP probe competition in HEK293T cells, PNPLA2; format: binding; details: unaltered lipid probe enrichment ratio
T3 sequence (Q96AD5 1-504): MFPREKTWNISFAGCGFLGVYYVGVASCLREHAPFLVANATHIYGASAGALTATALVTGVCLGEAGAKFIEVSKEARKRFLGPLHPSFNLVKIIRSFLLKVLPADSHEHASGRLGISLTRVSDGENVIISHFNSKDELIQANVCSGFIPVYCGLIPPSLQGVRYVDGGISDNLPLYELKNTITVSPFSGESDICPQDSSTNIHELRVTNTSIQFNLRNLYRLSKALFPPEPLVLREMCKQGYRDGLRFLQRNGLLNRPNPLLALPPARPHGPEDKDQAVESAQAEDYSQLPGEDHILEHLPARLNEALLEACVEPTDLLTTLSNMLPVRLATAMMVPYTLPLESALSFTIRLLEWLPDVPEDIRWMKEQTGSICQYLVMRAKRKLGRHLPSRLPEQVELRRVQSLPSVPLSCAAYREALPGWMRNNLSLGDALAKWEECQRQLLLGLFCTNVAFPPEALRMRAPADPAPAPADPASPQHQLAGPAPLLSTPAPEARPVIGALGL

ABHD10 = molecular target: T4, ABHD10 (Homo sapiens, UniProt Q9NUJ1); test: LiPIP probe competition in HEK293T cells, off-target ABHD10; format: binding; details: ligand 25 μM
T4 sequence (Q9NUJ1 53-306): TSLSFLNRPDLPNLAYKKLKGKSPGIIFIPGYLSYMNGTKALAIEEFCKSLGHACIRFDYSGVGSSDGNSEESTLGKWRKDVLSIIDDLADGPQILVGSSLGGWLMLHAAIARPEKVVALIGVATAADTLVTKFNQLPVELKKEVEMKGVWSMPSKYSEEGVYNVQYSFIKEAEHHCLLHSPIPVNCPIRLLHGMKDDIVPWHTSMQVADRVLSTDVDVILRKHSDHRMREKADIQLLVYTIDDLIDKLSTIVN

EPHX2 = molecular target: T5, EPHX2 (Homo sapiens, UniProt P34913); test: LiPIP probe competition in HEK293T cells, off-target EPHX2; format: binding; details: ligand 25 μM
T5 sequence (P34913 1-555): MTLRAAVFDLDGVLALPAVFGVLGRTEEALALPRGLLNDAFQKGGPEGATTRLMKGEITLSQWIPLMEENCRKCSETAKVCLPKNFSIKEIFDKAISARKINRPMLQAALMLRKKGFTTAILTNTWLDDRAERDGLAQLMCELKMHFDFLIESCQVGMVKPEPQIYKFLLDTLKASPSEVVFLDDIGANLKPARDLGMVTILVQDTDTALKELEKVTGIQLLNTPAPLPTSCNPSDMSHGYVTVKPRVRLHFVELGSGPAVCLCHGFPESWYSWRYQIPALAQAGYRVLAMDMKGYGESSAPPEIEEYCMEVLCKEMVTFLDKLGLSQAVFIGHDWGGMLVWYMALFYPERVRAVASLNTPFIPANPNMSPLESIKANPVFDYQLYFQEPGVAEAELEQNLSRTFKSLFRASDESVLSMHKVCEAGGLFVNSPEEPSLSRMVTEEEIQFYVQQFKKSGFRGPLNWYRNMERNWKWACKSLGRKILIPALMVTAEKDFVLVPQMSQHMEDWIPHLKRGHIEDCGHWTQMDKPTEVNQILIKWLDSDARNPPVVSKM

[2] = tested on: oligodendrocyte precursor cell (OPC); details: cited from earlier work
Neuro2a cells = test: Endogenous S1P content of Neuro2a cells by targeted LC-MS/MS; format: cell-based, mouse; details: 6 h treatment
hSGPL1 = molecular target: T6, hSGPL1 (Homo sapiens, UniProt O95470); format: biochemical
T6 sequence (O95470 1-568): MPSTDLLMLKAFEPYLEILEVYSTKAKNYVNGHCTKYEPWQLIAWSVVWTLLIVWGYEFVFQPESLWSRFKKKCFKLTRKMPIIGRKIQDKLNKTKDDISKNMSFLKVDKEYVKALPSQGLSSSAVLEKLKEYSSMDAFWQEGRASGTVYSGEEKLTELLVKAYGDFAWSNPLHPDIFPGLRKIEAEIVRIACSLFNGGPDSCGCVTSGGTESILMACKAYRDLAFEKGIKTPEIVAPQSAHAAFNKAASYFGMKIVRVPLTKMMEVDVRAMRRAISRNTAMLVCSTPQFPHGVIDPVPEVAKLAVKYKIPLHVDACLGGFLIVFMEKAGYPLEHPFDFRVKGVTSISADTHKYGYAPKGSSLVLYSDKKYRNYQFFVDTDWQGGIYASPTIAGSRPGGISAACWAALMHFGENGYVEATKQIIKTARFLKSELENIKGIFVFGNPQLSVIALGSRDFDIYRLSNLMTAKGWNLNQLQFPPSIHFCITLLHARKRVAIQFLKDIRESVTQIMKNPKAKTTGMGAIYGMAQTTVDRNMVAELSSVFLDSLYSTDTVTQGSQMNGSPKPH

EPHX1 = molecular target: T7, EPHX1 (Mus musculus, UniProt Q9D379); test: LiPIP in Neuro2a cells, EPHX1; format: binding; details: drug 30 μM, lipid probe 10 μM
T7 sequence (Q9D379 1-455): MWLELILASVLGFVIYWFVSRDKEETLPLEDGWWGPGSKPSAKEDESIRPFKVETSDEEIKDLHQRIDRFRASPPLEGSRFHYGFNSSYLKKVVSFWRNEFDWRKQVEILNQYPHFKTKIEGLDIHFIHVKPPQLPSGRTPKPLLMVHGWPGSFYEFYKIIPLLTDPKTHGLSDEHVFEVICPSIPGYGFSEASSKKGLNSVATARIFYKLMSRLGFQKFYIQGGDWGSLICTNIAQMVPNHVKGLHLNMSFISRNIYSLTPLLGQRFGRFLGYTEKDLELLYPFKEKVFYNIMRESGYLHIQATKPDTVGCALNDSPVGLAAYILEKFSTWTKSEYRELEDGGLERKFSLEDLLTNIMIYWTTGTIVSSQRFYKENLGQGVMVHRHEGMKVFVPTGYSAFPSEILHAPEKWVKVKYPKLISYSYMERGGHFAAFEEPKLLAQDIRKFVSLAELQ

mSGPL1 [3] = molecular target: T1, mSGPL1; test: Gel-based blockade of AEA-DA labeling of recombinant mSGPL1 in HEK293T cells; format: binding; details: recombinant mSGPL1 expressed in HEK293T cells; AEA-DA 2 μM
CLPP = CLPP (Mus musculus, UniProt O88696); test: LiPIP in Neuro2a cells, CLPP; format: binding; details: drug 30 μM, lipid probe 10 μM
Sequence of CLPP (O88696 53-272): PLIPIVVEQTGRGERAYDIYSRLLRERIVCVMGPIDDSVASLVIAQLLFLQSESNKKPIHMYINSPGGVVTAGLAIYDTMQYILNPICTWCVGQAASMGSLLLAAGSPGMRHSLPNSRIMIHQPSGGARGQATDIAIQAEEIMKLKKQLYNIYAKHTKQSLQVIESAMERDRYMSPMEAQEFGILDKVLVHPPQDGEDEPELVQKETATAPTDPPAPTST

TMEM97 = molecular target: T8, TMEM97 (Mus musculus, UniProt Q8VD00); test: LiPIP in Neuro2a cells, TMEM97; format: binding; details: drug 30 μM, lipid probe 10 μM
T8 sequence (Q8VD00 1-176): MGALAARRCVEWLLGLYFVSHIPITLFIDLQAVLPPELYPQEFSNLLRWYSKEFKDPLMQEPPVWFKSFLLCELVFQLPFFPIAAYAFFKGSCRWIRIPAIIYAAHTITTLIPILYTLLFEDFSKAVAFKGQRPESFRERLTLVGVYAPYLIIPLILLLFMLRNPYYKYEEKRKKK

SGPL1 = molecular target: T9, SGPL1 (Mus musculus, UniProt Q8R0X7); test: LiPIP in Neuro2a cells, SGPL1; format: binding; details: drug 30 μM, lipid probe 10 μM
T9 sequence (Q8R0X7 1-568): T1 sequence (Q8R0X7 1-568)

rSGPL1 = molecular target: T10, rSGPL1 (Rattus norvegicus, UniProt Q8CHN6); format: biochemical; details: tested at concentrations up to 200 μM
T10 sequence (Q8CHN6 1-568): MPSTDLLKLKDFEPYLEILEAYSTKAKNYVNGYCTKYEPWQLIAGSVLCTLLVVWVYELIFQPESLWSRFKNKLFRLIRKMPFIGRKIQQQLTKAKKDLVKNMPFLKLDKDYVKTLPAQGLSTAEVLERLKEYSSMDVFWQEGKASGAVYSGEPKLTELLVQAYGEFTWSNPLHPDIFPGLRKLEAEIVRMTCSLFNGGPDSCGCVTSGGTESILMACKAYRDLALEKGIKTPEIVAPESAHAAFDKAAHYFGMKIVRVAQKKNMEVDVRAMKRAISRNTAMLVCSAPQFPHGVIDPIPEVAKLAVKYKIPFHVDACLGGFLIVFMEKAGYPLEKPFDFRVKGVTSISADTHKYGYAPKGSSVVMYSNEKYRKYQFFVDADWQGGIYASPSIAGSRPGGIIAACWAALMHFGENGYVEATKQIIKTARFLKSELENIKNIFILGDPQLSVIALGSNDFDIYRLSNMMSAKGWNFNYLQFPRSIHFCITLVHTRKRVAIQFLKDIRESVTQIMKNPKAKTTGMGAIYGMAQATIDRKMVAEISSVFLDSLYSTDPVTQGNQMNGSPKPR

mSGPL1 [4] = molecular target: T1, mSGPL1; format: biochemical; details: tested at concentrations up to 200 μM

For `CCCCCCCCc1ccc(CC[C@](N)(CO)COP(=O)(O)O)cc1` [(S)-pFTY720], the “effect on OPC differentiation (MBP+ cells)” value (“effect on OPC differentiation” below) (rat OPC) was “no impact on OPC differentiation”.
For `CCCCCCCCCCCCC/C=C/[C@@H](O)[C@@H](N)COP(=O)(O)O` [S1P, sphingosine 1-phosphate], the “blockade of AEA-DA probe interactions with mSGPL1 in vitro” value (mSGPL1 [1]) was “inhibited AEA-DA binding to SGPL1”.
In the case of `Cc1ccc2c(CC(=O)N3CCN(S(=O)(=O)c4ccc5c(c4)OCCO5)CC3)coc2c1` [SR-4559], the “blocking the A-DA or AEA-DA probe interaction with ABHD5” value (ABHD5) is reported as > 80%, the “engagement of PNPLA2 (lipid probe enrichment ratio)” value (PNPLA2) is reported as “not directly engaged” and the “SILAC ratio (LiPIP probe displacement), ABHD10” value (ABHD10) is reported as ≥ 3.0.
With `CCCCNC(=O)Nc1ccc2c(c1)N(C)C(=O)c1ccccc1S2` [SR-4995] the “SILAC ratio (LiPIP probe displacement), EPHX2” value (EPHX2) was ≥ 3.0, the “blocking the A-DA or AEA-DA probe interaction with ABHD5” value (ABHD5) was > 80% and the “engagement of PNPLA2 (lipid probe enrichment ratio)” value (PNPLA2) was “not directly engaged”.
With `C[C@@H]1CN(c2nnc(Cc3ccccc3)c3ccc(C#N)cc23)CCN1c1ccc(C#N)cn1` [compound 11, (R)-1-benzyl-4-(4-(5-cyanopyridin-2-yl)-3-methylpiperazin-1-yl)phthalazine-6-carbonitrile] the “effect on OPC differentiation” value (rat OPC) was “did not promote OPC differentiation”.
For `Clc1ccc(COC(Cn2ccnc2)c2ccc(Cl)cc2Cl)c(Cl)c1` (stereo not drawn) [miconazole], the “OPC differentiation by phenotypic screening” value [2] is given as “promote oligodendrocyte precursor cell (OPC) differentiation”, the “effect on endogenous S1P content” value (Neuro2a cells) is given as “increased the endogenous S1P content” and the “effect on OPC differentiation” value (rat OPC) is given as “promotion of rat OPC differentiation”. For the same compound, the IC50 (hSGPL1) was 6.5 µM and the “maximal inhibition of hSGPL1 (plateau)” value (hSGPL1; fluorogenic S1P substrate analog) was 40%.
In the case of `C[C@@H](c1ncncc1F)[C@](O)(Cn1cncn1)c1ccc(F)cc1F` [voriconazole], the “SILAC ratio (light/heavy), EPHX1” value (EPHX1) is reported as ~ 1.0, the “blockade of AEA-DA probe binding to mSGPL1” value (mSGPL1 [3]) is reported as “but not voriconazole” and the “SILAC ratio (light/heavy), CLPP” value (CLPP) is reported as ~ 1.0. For the same compound, the “SILAC ratio (light/heavy), TMEM97” value (TMEM97) was ~ 1.0, the “SILAC ratio (light/heavy), SGPL1” value (SGPL1) was ~ 1.0 and the “OPC differentiation by phenotypic screening” value [2] was “inactive”. The “inhibition of rSGPL1 activity” value (rSGPL1) was “did not inhibit”, the “inhibition of mSGPL1 activity” value (mSGPL1 [4]) was “did not inhibit” and the “inhibition of hSGPL1 activity” value (hSGPL1; tested at concentrations up to 200 μM) was “did not inhibit”. The “blockade of AEA-DA probe interactions with mSGPL1 in vitro” value (mSGPL1 [1]) was “but not voriconazole”.
